Km data for one molecule are collected here from publication PMC3834954, “Design, Synthesis and in Vitro Degradation of a Novel Co-Drug for the Treatment of Psoriasis” (Pharmaceutics, 2013).

The test relates to porcine liver esterase (PLE). Put plainly: HPLC of naproxen release, initial rates, Lineweaver-Burk. To be noted: PBS, 5% acetonitrile, 25 °C, 120 IU/mL PLE, 29-91 μM substrate; ester hydrolysis. Type of test: biochemical, Sus scrofa.

For `COc1ccc2cc(C(C)C(=O)Oc3cccc4c3C(=O)c3c(O)cccc3C4)ccc2c1` (stereo not shown) [compound 8, 8-Hydroxy-9-oxo-9,10-dihydroanthracen-1-yl 2-(6-methoxynaphthalen-2-yl)propanoate], the Km (commonly the substrate concentration at which the rate is half of its maximum) was determined as 65.1 ± 0.99 µM.
